Results: patent US20220177477A1 (Central China Normal University, priority 2019, published 2022)

Key:
TRKA-G667C = target: T1, TRKA-G667C (Homo sapiens, UniProt P04629, G667C); experiment: TRK kinase mutant inhibition (HTRF), TRKA-G667C; format: biochemical
T1 construct: purchased Carna Biosciences

TRKB = target: T2, TRKB (Homo sapiens, UniProt Q16620); experiment: In vitro biochemical HTRF KinEASE kinase inhibition, TRKB; conditions: wild-type kinase, final ATP 2.56 μmol/L
T2 construct: purchased Carna Biosciences 08-187
Outline: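 Human TRKA or TRKB was preincubated 5 min at 25° C with compound, then reacted 30 min at 37° C with 0.2 μmol/L biotinylated TK substrate and ATP (final 3.727 μmol/L for TRKA, 2.56 μmol/L for TRKB) in buffer containing DTT, MnCl2 and MgCl2. HTRF 665/620 nm ratio read after 1 h detection; IC50 from variable-slope fit.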

[1] = Drug metabolism study in rats, intravenous administration; conditions: rat
TRKC-G623R = target: T3, TRKC-G623R (Homo sapiens, UniProt Q16288, G623R); experiment: TRK kinase mutant inhibition (HTRF), TRKC-G623R; format: biochemical
T3 construct: purchased Carna Biosciences

TRKC = target: T4, TRKC (Homo sapiens, UniProt Q16288); experiment: In vitro biochemical HTRF KinEASE kinase inhibition, TRKC; conditions: wild-type kinase, final ATP 2.526 μmol/L
T4 construct: purchased Carna Biosciences 08-197

TRKA = target: T5, TRKA (Homo sapiens, UniProt P04629); experiment: In vitro biochemical HTRF KinEASE kinase inhibition, TRKA; conditions: wild-type kinase, final ATP 3.727 μmol/L; read-out: TRKA IC50
T5 construct: purchased Carna Biosciences 08-186

TRKA-F589L = target: T6, TRKA-F589L (Homo sapiens, UniProt P04629, F589L); experiment: TRK kinase mutant inhibition (HTRF), TRKA-F589L; format: biochemical
T6 construct: purchased Carna Biosciences

Human NSCLC H2228 = experiment: Antitumor activity on nude mouse xenograft tumor model (Test Example 4); format: in vivo, nude mice (BALB/c)
Procedure: The efficacy of the compounds of the invention was evaluated by a standard murine model of the transplanted tumor. Human NSCLC H2228 was cultured, collected, and inoculated subcutaneously to 5-6 weeks old female nude mice (BALB/c, Shanghai Ling Chang Biotech, Ltd.). When the tumor volume reached 100-150 mm^3, the animals were randomly divided into a solvent control group ([…] in water) and a compound group (6 animals per group). Animals were subsequently gavaged with the compounds of the examples (corresponding dose, dissolved in […] in water), starting anywhere from 0 to 7 days after tumor cell inoculation, and were performed twice daily in the experiment.
The experimental index is to examine the influence of the compound of the embodiment on the growth of the tumor, and the specific index is […].
Tumor diameters were measured twice weekly with a vernier caliper and tumor volume (V) was calculated as:
V=½×a×b^2 wherein a and b represent length and width, respectively.
T/C(%)=(T−T0)/(C−C0)×100 where T, C is the tumor volume at the end of the experiment; T0, C0 are tumor volumes at the beginning of the experiment.
Partial tumor regression (PR) is defined if the tumor shrinks from the initial volume, i.e., T<T0 or C<C0; if the tumor completely disappears, it is defined as complete tumor regression (CR).
Comparison between the two groups of tumor volumes was tested using a two-tailed Student's t test, with P<0.05 defined as statistically significant differences.
BID below refers to twice daily dosing.

TRKC-G696A = target: T7, TRKC-G696A (Homo sapiens, UniProt Q16288, G696A); experiment: TRK kinase mutant inhibition (HTRF), TRKC-G696A; format: biochemical
T7 construct: purchased Carna Biosciences

[2] = Drug metabolism study in rats, oral administration; conditions: rat
TRKA-G595R = target: T8, TRKA-G595R (Homo sapiens, UniProt P04629, G595R); experiment: TRK kinase mutant inhibition (HTRF), TRKA-G595R; format: biochemical
T8 construct: purchased Carna Biosciences

[3] = 50 mg/kg BID D0-7, D14, tumors regressed/animals per group

T8 sequence (P04629 33-796 G595R): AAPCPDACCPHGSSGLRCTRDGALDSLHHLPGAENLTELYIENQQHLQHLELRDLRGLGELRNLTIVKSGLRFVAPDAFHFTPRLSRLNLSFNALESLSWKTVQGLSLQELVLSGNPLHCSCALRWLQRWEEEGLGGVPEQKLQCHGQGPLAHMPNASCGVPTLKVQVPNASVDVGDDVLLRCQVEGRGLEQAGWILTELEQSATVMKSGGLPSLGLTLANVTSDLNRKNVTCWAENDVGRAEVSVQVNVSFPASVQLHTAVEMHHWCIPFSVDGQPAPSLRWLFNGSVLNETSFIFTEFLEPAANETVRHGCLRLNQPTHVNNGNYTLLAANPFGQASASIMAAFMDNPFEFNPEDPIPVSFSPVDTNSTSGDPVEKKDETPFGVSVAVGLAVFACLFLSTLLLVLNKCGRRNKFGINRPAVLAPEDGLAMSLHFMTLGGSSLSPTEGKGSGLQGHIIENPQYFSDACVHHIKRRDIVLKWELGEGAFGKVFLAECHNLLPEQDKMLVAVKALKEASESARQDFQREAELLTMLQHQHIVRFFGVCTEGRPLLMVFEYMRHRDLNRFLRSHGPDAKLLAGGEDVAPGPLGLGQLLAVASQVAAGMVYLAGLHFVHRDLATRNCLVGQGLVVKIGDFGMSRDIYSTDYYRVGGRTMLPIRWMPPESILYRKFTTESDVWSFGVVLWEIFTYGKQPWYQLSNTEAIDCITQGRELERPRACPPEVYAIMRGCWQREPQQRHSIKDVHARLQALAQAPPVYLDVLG
T5 sequence (P04629 33-796): as the sequence (P04629 33-796 G595R) above, with R563G counted along it
T3 sequence (Q16288 32-839 G623R): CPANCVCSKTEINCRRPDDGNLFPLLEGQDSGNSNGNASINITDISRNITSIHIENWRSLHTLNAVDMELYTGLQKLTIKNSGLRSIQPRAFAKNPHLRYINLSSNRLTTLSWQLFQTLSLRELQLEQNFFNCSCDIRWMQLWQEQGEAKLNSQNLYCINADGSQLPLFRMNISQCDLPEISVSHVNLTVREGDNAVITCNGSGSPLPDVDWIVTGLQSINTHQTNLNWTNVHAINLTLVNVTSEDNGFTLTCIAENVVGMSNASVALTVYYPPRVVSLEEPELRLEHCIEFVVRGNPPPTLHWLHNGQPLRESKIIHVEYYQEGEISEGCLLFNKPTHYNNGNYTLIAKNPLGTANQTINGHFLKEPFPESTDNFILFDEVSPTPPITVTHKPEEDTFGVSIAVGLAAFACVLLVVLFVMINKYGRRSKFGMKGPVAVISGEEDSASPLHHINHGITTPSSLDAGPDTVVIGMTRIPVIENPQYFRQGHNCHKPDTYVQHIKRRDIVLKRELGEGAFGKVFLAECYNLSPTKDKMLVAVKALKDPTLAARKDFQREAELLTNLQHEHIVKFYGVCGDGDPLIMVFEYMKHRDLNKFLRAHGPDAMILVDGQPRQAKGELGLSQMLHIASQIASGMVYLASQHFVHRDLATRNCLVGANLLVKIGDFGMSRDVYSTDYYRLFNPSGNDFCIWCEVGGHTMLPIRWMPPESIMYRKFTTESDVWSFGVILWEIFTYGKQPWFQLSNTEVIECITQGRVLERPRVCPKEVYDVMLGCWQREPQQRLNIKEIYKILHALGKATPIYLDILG
T1 sequence (P04629 33-796 G667C): as the sequence (P04629 33-796 G595R) above, with R563G, G635C counted along it
T2 sequence (Q16620 32-822): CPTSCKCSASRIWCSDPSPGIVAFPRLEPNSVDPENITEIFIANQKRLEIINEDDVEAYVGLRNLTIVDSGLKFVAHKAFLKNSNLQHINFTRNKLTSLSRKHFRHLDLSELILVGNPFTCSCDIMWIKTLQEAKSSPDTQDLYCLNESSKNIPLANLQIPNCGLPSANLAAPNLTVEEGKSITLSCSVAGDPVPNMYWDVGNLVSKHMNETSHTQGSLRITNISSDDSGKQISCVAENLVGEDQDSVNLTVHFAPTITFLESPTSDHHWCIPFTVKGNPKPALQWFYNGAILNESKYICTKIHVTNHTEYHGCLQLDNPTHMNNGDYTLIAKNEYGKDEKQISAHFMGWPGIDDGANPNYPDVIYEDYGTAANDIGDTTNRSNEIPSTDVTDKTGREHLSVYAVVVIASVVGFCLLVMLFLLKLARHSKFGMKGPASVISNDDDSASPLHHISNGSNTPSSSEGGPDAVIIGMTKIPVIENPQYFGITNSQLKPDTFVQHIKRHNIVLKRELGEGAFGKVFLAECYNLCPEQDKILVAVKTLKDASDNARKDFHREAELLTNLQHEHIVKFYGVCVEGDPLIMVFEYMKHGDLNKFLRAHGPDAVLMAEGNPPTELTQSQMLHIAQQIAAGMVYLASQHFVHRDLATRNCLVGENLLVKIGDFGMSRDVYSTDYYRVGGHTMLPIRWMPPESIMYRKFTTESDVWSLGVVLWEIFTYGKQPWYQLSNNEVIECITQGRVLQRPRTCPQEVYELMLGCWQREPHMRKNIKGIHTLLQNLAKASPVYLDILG
T6 sequence (P04629 33-796 F589L): as the sequence (P04629 33-796 G595R) above, with F557L, R563G counted along it
T7 sequence (Q16288 32-839 G696A): as the sequence (Q16288 32-839 G623R) above, with R592G, G665A counted along it
T4 sequence (Q16288 32-825 isoform Q16288-3 limits assumed): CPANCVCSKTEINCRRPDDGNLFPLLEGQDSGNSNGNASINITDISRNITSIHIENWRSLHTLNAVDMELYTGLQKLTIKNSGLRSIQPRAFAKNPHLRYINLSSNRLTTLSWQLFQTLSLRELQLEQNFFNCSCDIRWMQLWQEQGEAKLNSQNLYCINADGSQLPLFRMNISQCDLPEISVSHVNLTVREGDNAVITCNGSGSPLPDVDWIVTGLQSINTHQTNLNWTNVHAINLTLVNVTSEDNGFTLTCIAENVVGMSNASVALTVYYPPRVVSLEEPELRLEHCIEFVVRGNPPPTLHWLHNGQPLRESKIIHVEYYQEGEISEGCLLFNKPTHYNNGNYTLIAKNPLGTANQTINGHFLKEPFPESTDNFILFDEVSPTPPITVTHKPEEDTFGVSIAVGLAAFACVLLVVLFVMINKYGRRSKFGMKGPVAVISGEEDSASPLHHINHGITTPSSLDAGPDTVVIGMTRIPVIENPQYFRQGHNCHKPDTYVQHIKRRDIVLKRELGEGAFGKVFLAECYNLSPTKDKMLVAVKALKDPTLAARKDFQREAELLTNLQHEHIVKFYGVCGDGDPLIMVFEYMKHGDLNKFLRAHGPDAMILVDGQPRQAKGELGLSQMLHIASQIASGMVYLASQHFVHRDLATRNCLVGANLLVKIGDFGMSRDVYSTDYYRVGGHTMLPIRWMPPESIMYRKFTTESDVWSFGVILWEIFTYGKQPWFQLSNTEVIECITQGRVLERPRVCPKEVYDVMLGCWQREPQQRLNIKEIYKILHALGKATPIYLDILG

`C[C@@H](Nc1ccn2ncc(-c3cnn(CCO)c3)c2n1)c1cc(F)ccc1OCC(F)F` [Compound 5, (R)-2-(4-(5-((1-(2-(2,2-difluoroethoxy)-5-fluorophenyl)ethyl)amino)pyrazolo [1,5-a]pyrimidin-3-yl)-1H-pyrazol-1-yl) ethanol] showed an IC50 (TRKA-G667C) of 0.95 nM, an IC50 (TRKB) of 3.9 nM and a Vd ([1]; in vivo, iv, 1 mg/kg) of 40 L/kg. For the same compound, the clearance ([1]; in vivo, iv, 1 mg/kg) was 83.3 mL/min/kg, the Cmax ([1]; intravenous injection 1 mg/kg) was 104.1 ng/mL and the T1/2 ([1]; intravenous injection 1 mg/kg) was 5.7 h. For the same compound, the AUC(0-t) ([1]; plasma, iv, 1 mg/kg) was 194 ng·h/mL, the MRT last ([1]; plasma, iv, 1 mg/kg) was 3.89 h and the IC50 (TRKC-G623R) was 0.61 nM. The IC50 (TRKC) was 11.1 nM, the IC50 (TRKA) was 3.6 nM and the IC50 (TRKA-F589L) was 0.29 nM. For the same compound, the Partially regression (Human NSCLC H2228; [3]) was 2/6, the complete regression (Human NSCLC H2228; [3]) was 3/6 and the “Tumor growth inhibition value D14” value (Human NSCLC H2228; 50 mg/kg BID gavage D0-7, dosing stopped from D8, read at D14, 50 mg/kg) was 155%. For the same compound, the “Tumor growth inhibition value D14” value (Human NSCLC H2228; 50 mg/kg BID gavage D0-7, dosing stopped from D8, read at D14, listed as compound 5, 50 mg/kg) was 155%, the “tumor completely regressed D7” value (Human NSCLC H2228; 50 mg/kg BIDx8, D7, tumors regressed/animals per group) was 4/6 and the “tumor inhibition rate D7” value (Human NSCLC H2228; 50 mg/kg BIDx8, read at D7) was 182%. For the same compound, the IC50 (TRKC-G696A) was 1 nM, the bioavailability ([2]; in vivo, po, 5 mg/kg) was 49.3% and the CL ([2]; oral 5 mg/kg) was 158 mL/min/kg. The Cmax ([2]; oral 5 mg/kg) was 217.7 ng/mL, the T1/2 ([2]; oral 5 mg/kg) was 5.7 h and the Tmax ([2]; oral 5 mg/kg) was 0.25 h. The Vz ([2]; oral 5 mg/kg) was 79.26 L/kg, the AUC(0-t) ([2]; plasma, po, 5 mg/kg) was 479 ng·h/mL and the MRT last ([2]; plasma, po, 5 mg/kg) was 3.6 h. For the same compound, the IC50 (TRKA-G595R) was 0.88 nM.
